22 compounds from patent US20030078251A1, “Benzoxazepinones and their use as squalene synthase inhibitors” (priority 2000, published 2003) can be followed below.

Regarding `COc1cccc([C@H]2O[C@H](CC(=O)NCCc3ccc(OC(C)(C)C(=O)O)cc3)C(=O)N(CC(C)(C)CO)c3ccc(Cl)cc32)c1OC` [Example 77, α-[4-[2-[[(3R,5S)-7-Chloro-5-(2,3-dimethoxyphenyl)-1-(3-hydroxy-2,2-dimethylpropyl)-2-oxo-1,2,3,5-tetrahydro-4,1-benzoxazepin-3-yl]acetyl]aminoethyl]phenyloxy]isobutanoic acid], the melting point – broadly, the temperature, or range, at which the solid turns liquid – was in the range of 209 to 211 °C.
With `COc1cccc([C@@H]2O[C@@H](CC(=O)NCCc3occc3C(=O)O)C(=O)N(CC(C)(C)CO)c3ccc(Cl)cc32)c1OC` [Example 119, 2-[2-[[[(3S,5R)-7-Chloro-5-(2,3-dimethoxyphenyl)-1-(3-hydroxy-2,2-dimethylpropyl)-2-oxo-1,2,3,5-tetrahydro-4,1-benzoxazepin-3-yl]acetyl]amino]ethyl]furan-3-carboxylic acid] the figure was 123 to 126 °C.
The compound `COc1cccc([C@H]2O[C@H](CC(=O)Nc3cc(CCC(=O)O)ccc3OCCCc3ccccc3)C(=O)N(CC(C)(C)CO)c3ccc(Cl)cc32)c1OC` [Example 125, 3-[3-[[[(3R,5S)-7-Chloro-5-(2,3-dimethoxyphenyl)-1-(3-hydroxy-2,2-dimethylpropyl)-2-oxo-1,2,3,5-tetrahydro-4,1-benzoxazepin-3-yl]acetyl]amino]-4-(3-phenylpropyloxy)phenyl]propionic Acid] had a melting point of 162 to 165 °C.
With `COc1cccc([C@H]2O[C@H](CC(=O)Nc3ccc(F)c(CCC(=O)O)c3)C(=O)N(CC(C)(C)CO)c3ccc(Cl)cc32)c1OC` [Example 134, 3-[5-[[[(3R,5S)-7-Chloro-5-(2,3-dimethoxyphenyl)-1-(3-hydroxy-2,2-dimethylpropyl)-2-oxo-1,2,3,5-tetrahydro-4,1-benzoxazepin-3-yl]acetyl]amino]-2-fluorophenyl]propionic Acid] the figure was 123 to 125 °C; with `COc1cccc([C@H]2O[C@H](CC(=O)Nc3cccc(CCCCC(=O)O)c3)C(=O)N(CC(C)(C)CO)c3ccc(Cl)cc32)c1OC` [Example 135, 5-[3-[[[(3R,5S)-7-Chloro-5-(2,3-dimethoxyphenyl)-1-(3-hydroxy-2,2-dimethylpropyl)-2-oxo-1,2,3,5-tetrahydro-4,1-benzoxazepin-3-yl]acetyl]amino]phenyl]pentanoic acid], 117 to 119 °C; with `COc1cccc([C@H]2O[C@H](CC(=O)Nc3c(C)c(C)c4oc(C(=O)O)cc4c3C)C(=O)N(CC(C)(C)CO)c3ccc(Cl)cc32)c1OC` [Example 164, 5-[[[(3R,5S)-7-Chloro-5-(2,3-dimethoxyphenyl)-1-(3-hydroxy-2,2-dimethylpropyl)-2-oxo-1,2,3,5-tetrahydro-4,1-benzoxazepin-3-yl]acetyl]amino]-4,6,7-trimethyl-1-benzofuran-2-carboxylic acid], 246 to 248 °C.
With `CCCCS(=O)(=O)NC(=O)C[C@H]1O[C@H](c2cccc(OC)c2OC)c2cc(Cl)ccc2N(CC(C)(C)CO)C1=O` [Example 4, (3R,5S)-N-butanesulfonyl-7-chloro-5-(2,3-dimethoxyphenyl)-1-(3-hydroxy-2,2-dimethylpropyl)-2-oxo-1,2,3,5-tetrahydro-4,1-benzoxazepine-3-acetamide], the melting point lay within 123 to 125 °C.
On to `COc1cccc([C@H]2O[C@H](CC(=O)Nc3ccc4[nH]c(SCC(=O)O)nc4c3)C(=O)N(CC(C)(C)CO)c3ccc(Cl)cc32)c1OC` [Example 148, 2-[[5-[[[(3R,5S)-7-Chloro-5-(2,3-dimethoxyphenyl)-1-(3-hydroxy-2,2-dimethylpropyl)-2-oxo-1,2,3,5-tetrahydro-4,1-benzoxazepin-3-yl]acetyl]amino]-1H-benzimidazol-2-yl]sulfanyl]acetic acid], for which the melting point lay within 187.9 to 188.9 °C.
`COc1cccc([C@H]2O[C@H](CC(=O)Nc3cc(OC)c4oc(C(=O)O)cc4c3)C(=O)N(CC(C)(C)CO)c3ccc(Cl)cc32)c1OC` [Example 149, 5-[[[(3R,5S)-5-(2,3-dimethoxyphenyl)-7-chloro-1-(3-hydroxy-2,2-dimethylpropyl)-2-oxo-1,2,3,5-tetrahydro-4,1-benzoxazepin-3-yl]acetyl]amino]-7-methoxy-1-benzofran-2-carboxylic acid] registered a melting point of 175.4 to 175.5 °C.
As for `COc1cc(CCC(=O)O)cc(NC(=O)C[C@H]2O[C@H](c3cccc(OC)c3OC)c3cc(Cl)ccc3N(CC(C)(C)CO)C2=O)c1OC` [Example 66, 3-[5-[[[(3R,5S)-7-chloro-5-(2,3-dimethoxyphenyl)-1-(3-hydroxy-2,2-dimethylpropyl)-2-oxo-1,2,3,5-tetrahydro-4,1-benzoxazepin-3-yl]acetyl]amino]-3,4-dimethoxyphenyl]propionic Acid], the figure is 145 to 148 °C.
With `COc1cccc([C@H]2O[C@H](CC(=O)Nc3cc(CCC(=O)O)ccc3OC(C)C)C(=O)N(CC(C)(C)COC(C)=O)c3ccc(Cl)cc32)c1OC` [Example 52, 3-[3-[[[(3R,5S)-1-(3-acetoxy-2,2-dimethylpropyl)-7-chloro-5-(2,3-dimethoxyphenyl)-2-oxo-1,2,3,5-tetrahydro-4,1-benzoxazepin-3-yl]acetyl]amino]-4-isopropoxyphenyl]propionic Acid] the figure was 101 to 103 °C; with `COc1cccc([C@H]2O[C@H](CC(=O)Nc3cc(CCC(=O)O)ccc3OC(C)C)C(=O)N(CC(C)(C)CO)c3ccc(Cl)cc32)c1OC` [Example 51, 3-[3-[[[(3R,5S)-7-chloro-5-(2,3-dimethoxyphenyl)-1-(3-hydroxy-2,2-dimethylpropyl)-2-oxo-1,2,3,5-tetrahydro-4,1-benzoxazepin-3-yl]acetyl]amino]-4-isopropoxyphenyl]propionic Acid], 133 to 136 °C; with `CCOc1ccc(CCC(=O)O)cc1NC(=O)C[C@H]1O[C@H](c2cccc(OC)c2OC)c2cc(Cl)ccc2N(CC(C)(C)CO)C1=O` [Example 49, 3-[3-[[[(3R,5S)-7-chloro-5-(2,3-dimethoxyphenyl)-1-(3-hydroxy-2,2-dimethylpropyl)-2-oxo-1,2,3,5-tetrahydro-4,1-benzoxazepin-3-yl]acetyl]amino]-4-ethoxyphenyl]propionic Acid], 151 to 153 °C.
With `COc1ccc(C(=O)O)cc1NC(=O)C[C@H]1O[C@H](c2cccc(OC)c2OC)c2cc(Cl)ccc2N(CC(C)(C)CO)C1=O` [Example 102, 3-[[(3R,5S)-7-Chloro-5-(2,3-dimethoxyphenyl)-1-(3-hydroxy-2,2-dimethylpropyl)-2-oxo-1,2,3,5-tetrahydro-4,1-benzoxazepin-3-yl]acetyl]amino-4-methoxybenzoic acid] the figure was 171 to 173 °C; with `COc1cccc([C@H]2O[C@H](CC(=O)NS(=O)(=O)CCCO)C(=O)N(CC(C)(C)CO)c3ccc(Cl)cc32)c1OC` [Example 6, (3R,5S)-N-(3-hydroxypropyl)sulfonyl-7-chloro-5-(2,3-dimethoxyphenyl)-1-(3-hydroxy-2,2-dimethylpropyl)-2-oxo-1,2,3,5-tetrahydro-4,1-benzoxazepine-3-acetamide], 133 to 135 °C.
Regarding `COc1cccc([C@H]2O[C@H](CC(=O)NCCCOc3cccc(C(=O)O)c3)C(=O)N(CC(C)(C)CO)c3ccc(Cl)cc32)c1OC` [Example 100, 3-[3-[[(3R,5S)-7-Chloro-5-(2,3-dimethoxyphenyl)-1-(3-hydroxy-2,2-dimethylpropyl)-2-oxo-1,2,3,5-tetrahydro-4,1-benzoxazepin-3-yl]acetyl]aminopropyloxy]benzoic acid], the melting point was in the range of 132 to 134 °C.
Compound `COc1cccc([C@H]2O[C@H](CC(=O)Nc3ccc(C(=O)O)cc3C)C(=O)N(CC(C)(C)CO)c3ccc(Cl)cc32)c1OC` [Example 48, 4-[[(3R,5S)-7-chloro-5-(2,3-dimethoxyphenyl)-1-(3-hydroxy-2,2-dimethylpropyl)-2-oxo-1,2,3,5-tetrahydro-4,1-benzoxazepin-3-yl]acetyl]amino-3-methylbenzoic acid] gave a melting point of 275 to 276 °C.
Regarding `CCOc1cc(NC(=O)C[C@H]2O[C@H](c3cccc(OC)c3OC)c3cc(Cl)ccc3N(CC(C)(C)CO)C2=O)cc2cc(C(=O)O)oc12` [Example 150, 5-[[[(3R,5S)-7-chloro-5-(2,3-dimethoxyphenyl)-1-(3-hydroxy-2,2-dimethylpropyl)-2-oxo-1,2,3,5-tetrahydro-4,1-benzoxazepin-3-yl]acetyl]amino]-7-ethoxy-1-benzofuran-2-carboxylic acid], the melting point is 181 to 181.5 °C.
With `COc1cccc([C@H]2O[C@H](CC(=O)Nc3cc(C(=O)O)ccc3F)C(=O)N(CC(C)(C)CO)c3ccc(Cl)cc32)c1OC` [Example 106, 3-[[[(3R,5S)-7-Chloro-5-(2,3-dimethoxyphenyl)-1-(3-hydroxy-2,2-dimethylpropyl)-2-oxo-1,2,3,5-tetrahydro-4,1-benzoxazepin-3-yl]acetyl]amino]-4-fluorobenzoic acid] the figure was 163 to 166 °C; with `COc1cccc([C@H]2O[C@H](CC(=O)Nc3cccc4c(C(=O)O)cccc34)C(=O)N(CC(C)(C)CO)c3ccc(Cl)cc32)c1OC` [Example 129, 5-[[2-[(3R,5S)-7-Chloro-5-(2,3-dimethoxyphenyl)-1-(3-hydroxy-2,2-dimethylpropyl)-2-oxo-1,2,3,5-tetrahydro-4,1-benzoxazepin-3-yl]acetyl]amino]-1-naphthoic acid], 171 to 174 °C.
Regarding `COc1cccc([C@H]2O[C@H](CC(=O)Nc3ncc(CCC(=O)O)s3)C(=O)N(CC(C)(C)CO)c3ccc(Cl)cc32)c1OC` [Example 144, 3-[2-[[[(3R,5S)-7-Chloro-5-(2,3-dimethoxyphenyl)-1-(3-hydroxy-2,2-dimethylpropyl)-2-oxo-1,2,3,5-tetrahydro-4,1-benzoxazepin-3-yl]acetyl]amino]-1,3-thiazol-5-yl]propionic Acid], the melting point lay in the range of 203 to 205 °C.
As for `COc1cccc([C@H]2O[C@H](CC(=O)Nc3ccc4oc(C(=O)O)c(C)c4c3)C(=O)N(CC(C)(C)CO)c3ccc(Cl)cc32)c1OC` [Example 160, 5-[[[(3R,5S)-7-Chloro-5-(2,3-dimethoxyphenyl)-1-(3-hydroxy-2,2-dimethylpropyl)-2-oxo-1,2,3,5-tetrahydro-4,1-benzoxazepin-3-yl]acetyl]amino]-3-methyl-1-benzofuran-2-carboxylic acid], the figure is 175 to 176.5 °C.
